# Assay results as given in publication PMC10782225 (The FASEB Journal, 2023).
# Target: T1, unaltered α7β2‐nAChR (Homo sapiens, UniProt P17787+P36544)
# T1 construct: expressed in transfected cells; host or cells: Xenopus laevis oocytes, cRNA injection
# Assay: ACh concentration‐response curve, TEVC, unaltered α7β2‐nAChR
# Type: cell-based
# Settings: mean ± SEM of 15–19 oocytes
# Description: Stimulations lasted 3 s, and were applied sequentially, 60 s apart.
# T1 sequence (P36544 23-502): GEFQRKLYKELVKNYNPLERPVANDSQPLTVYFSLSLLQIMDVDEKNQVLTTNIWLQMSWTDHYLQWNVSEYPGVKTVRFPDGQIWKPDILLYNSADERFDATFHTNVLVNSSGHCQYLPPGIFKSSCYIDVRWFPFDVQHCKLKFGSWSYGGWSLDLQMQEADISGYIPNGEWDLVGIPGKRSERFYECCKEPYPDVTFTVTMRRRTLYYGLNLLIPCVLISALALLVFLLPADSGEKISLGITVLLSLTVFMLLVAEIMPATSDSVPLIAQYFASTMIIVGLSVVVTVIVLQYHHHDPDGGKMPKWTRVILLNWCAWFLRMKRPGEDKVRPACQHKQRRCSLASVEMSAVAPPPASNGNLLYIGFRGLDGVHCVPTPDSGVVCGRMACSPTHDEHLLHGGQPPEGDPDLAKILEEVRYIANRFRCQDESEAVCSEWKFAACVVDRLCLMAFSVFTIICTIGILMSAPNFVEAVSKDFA
# T1 sequence (P17787 26-502): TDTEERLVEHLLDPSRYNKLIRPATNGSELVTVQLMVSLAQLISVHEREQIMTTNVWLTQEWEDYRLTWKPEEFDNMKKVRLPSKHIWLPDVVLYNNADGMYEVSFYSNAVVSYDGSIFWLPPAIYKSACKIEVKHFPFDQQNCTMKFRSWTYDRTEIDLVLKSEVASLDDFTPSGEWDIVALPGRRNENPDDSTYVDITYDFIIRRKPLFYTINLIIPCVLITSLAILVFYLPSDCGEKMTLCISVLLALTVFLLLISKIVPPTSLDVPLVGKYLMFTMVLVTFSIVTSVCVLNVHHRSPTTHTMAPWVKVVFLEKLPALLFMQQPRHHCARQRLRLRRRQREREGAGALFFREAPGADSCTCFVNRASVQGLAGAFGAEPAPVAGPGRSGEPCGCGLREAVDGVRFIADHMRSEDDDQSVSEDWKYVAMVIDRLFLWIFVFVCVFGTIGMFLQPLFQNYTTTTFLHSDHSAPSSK
smiles,measurement,setting,value
"CC(=O)OCC[N+](C)(C)C [ACh, acetylcholine]","Imax, maximum function induced by ACh, unaltered α7β2‐nAChR","ACh 10 μM – 10 mM, half‐log steps, 3 s, 60 s apart",1353 ± 149 nA
same,"hillslope (nH), unaltered α7β2‐nAChR",logistic fit per oocyte,1.03 ± 0.07
